Key:
Experiment in all cases: relative viability (nuclei count vs DMSO), 5 days (fraction); higher = more cells survive
BX 795 = compound: O=C(NCCCNc1nc(Nc2cccc(NC(=O)N3CCCC3)c2)ncc1I)c1cccs1 [BX 795]
Summary of the method: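 Five library-drug doses, separated by factors of √10, were pinned into 1536-well plates holding lung cancer cell lines after an overnight stay at 37 °C. Cells were fixed, permeabilised and Hoechst-stained in one step after 5 days without medium change, then imaged at 4×. Viability compares treated-well with vehicle-well nuclei, counted in MetaXpress, as a median across plates. Passing plates had control CV below 25% and at least one doubling.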

BX 795 + Trametinib = compound: O=C(NCCCNc1nc(Nc2cccc(NC(=O)N3CCCC3)c2)ncc1I)c1cccs1 [BX 795] + CC(=O)Nc1cccc(-n2c(=O)n(C3CC3)c(=O)c3c(Nc4ccc(I)cc4F)n(C)c(=O)c(C)c32)c1 [Trametinib] (partner 0.02 µM)
Summary of the method: (§1)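 Relative viability equals treated-well nuclei counts divided by vehicle-well nuclei counts. Counts came from 4× images of lung cancer cell lines grown in 1536-well plates for 5 days after pin-tool dosing on the day after seeding. Dosing used one drug alone or a fixed anchor-drug dose plus five library-drug doses (not always all listed) in √10 steps, and values are medians of duplicate plates.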

BX 795 + Palbociclib = compound: O=C(NCCCNc1nc(Nc2cccc(NC(=O)N3CCCC3)c2)ncc1I)c1cccs1 [BX 795] + CC(=O)c1c(C)c2cnc(Nc3ccc(N4CCNCC4)cn3)nc2n(C2CCCC2)c1=O [Palbociclib] (partner 0.5 µM)
Summary of the method: as §1

BX 795 + Luminespib = compound: O=C(NCCCNc1nc(Nc2cccc(NC(=O)N3CCCC3)c2)ncc1I)c1cccs1 [BX 795] + CCNC(=O)c1noc(-c2cc(C(C)C)c(O)cc2O)c1-c1ccc(CN2CCOCC2)cc1 [Luminespib] (partner 0.01 µM)
Summary of the method: as §1

BX 795 + Foretinib = compound: O=C(NCCCNc1nc(Nc2cccc(NC(=O)N3CCCC3)c2)ncc1I)c1cccs1 [BX 795] + COc1cc2c(Oc3ccc(NC(=O)C4(C(=O)Nc5ccc(F)cc5)CC4)cc3F)ccnc2cc1OCCCN1CCOCC1 [Foretinib] (partner 0.25 µM)
Summary of the method: as §1

BX 795 + OSI-027 = compound: O=C(NCCCNc1nc(Nc2cccc(NC(=O)N3CCCC3)c2)ncc1I)c1cccs1 [BX 795] + COc1cccc2cc(-c3nc([C@H]4CC[C@H](C(=O)O)CC4)n4ncnc(N)c34)[nH]c12 [OSI-027] (partner 0.5 µM)
Summary of the method: as §1

BX 795 + Tozasertib = compound: O=C(NCCCNc1nc(Nc2cccc(NC(=O)N3CCCC3)c2)ncc1I)c1cccs1 [BX 795] + Cc1cc(Nc2cc(N3CCN(C)CC3)nc(Sc3ccc(NC(=O)C4CC4)cc3)n2)n[nH]1 [Tozasertib] (partner 0.1 µM)
Summary of the method: as §1

BX 795 + Dasatinib = compound: O=C(NCCCNc1nc(Nc2cccc(NC(=O)N3CCCC3)c2)ncc1I)c1cccs1 [BX 795] + Cc1nc(Nc2ncc(C(=O)Nc3c(C)cccc3Cl)s2)cc(N2CCN(CCO)CC2)n1 [Dasatinib] (partner 0.075 µM)
Summary of the method: as §1

BX 795 + Phenformin = compound: O=C(NCCCNc1nc(Nc2cccc(NC(=O)N3CCCC3)c2)ncc1I)c1cccs1 [BX 795] + N=C(N)NC(=N)NCCc1ccccc1 [Phenformin] (partner 250 µM)
Summary of the method: as §1

BX 795 + AZD7762 = compound: O=C(NCCCNc1nc(Nc2cccc(NC(=O)N3CCCC3)c2)ncc1I)c1cccs1 [BX 795] + NC(=O)Nc1cc(-c2cccc(F)c2)sc1C(=O)N[C@H]1CCCNC1 [AZD7762] (partner 0.2 µM)
Summary of the method: as §1

BX 795 + Pemetrexed = compound: O=C(NCCCNc1nc(Nc2cccc(NC(=O)N3CCCC3)c2)ncc1I)c1cccs1 [BX 795] + Nc1nc2[nH]cc(CCc3ccc(C(=O)N[C@@H](CCC(=O)O)C(=O)O)cc3)c2c(=O)[nH]1 [Pemetrexed] (partner 0.2 µM)
Summary of the method: as §1

BX 795 + Decitabine = compound: O=C(NCCCNc1nc(Nc2cccc(NC(=O)N3CCCC3)c2)ncc1I)c1cccs1 [BX 795] + Nc1ncn([C@H]2C[C@H](O)[C@@H](CO)O2)c(=O)n1 [Decitabine] (partner 2 µM)
Summary of the method: as §1

BX 795 + Vorinostat = compound: O=C(NCCCNc1nc(Nc2cccc(NC(=O)N3CCCC3)c2)ncc1I)c1cccs1 [BX 795] + O=C(CCCCCCC(=O)Nc1ccccc1)NO [Vorinostat] (partner 1 µM)
Summary of the method: as §1

BX 795 + Olaparib = compound: O=C(NCCCNc1nc(Nc2cccc(NC(=O)N3CCCC3)c2)ncc1I)c1cccs1 [BX 795] + O=C(c1cc(Cc2n[nH]c(=O)c3ccccc23)ccc1F)N1CCN(C(=O)C2CC2)CC1 [Olaparib] (partner 8 µM)
Summary of the method: as §1

SW 900 gave a relative viability (BX 795; 0.04 µM) of 0.856, a relative viability (BX 795; 0.1265 µM) of 0.759 and a relative viability (BX 795; 0.4 µM) of 1.04. It also gave a relative viability (BX 795; 1.265 µM) of 0.813, a relative viability (BX 795 + Trametinib; first compound 0.04 µM) of 0.819 and a relative viability (BX 795 + Trametinib; first compound 0.4 µM) of 0.99. The relative viability (BX 795 + Trametinib; first compound 1.265 µM) was 0.706, the relative viability (BX 795 + Palbociclib; first compound 0.04 µM) was 0.512 and the relative viability (BX 795 + Palbociclib; first compound 0.4 µM) was 0.67. For the same cell line, the relative viability (BX 795 + Palbociclib; first compound 1.265 µM) was 0.593, the relative viability (BX 795 + Luminespib; first compound 0.04 µM) was 0.17 and the relative viability (BX 795 + Luminespib; first compound 0.1265 µM) was 0.157. The relative viability (BX 795 + Luminespib; first compound 0.4 µM) was 0.19, the relative viability (BX 795 + Luminespib; first compound 1.265 µM) was 0.169 and the relative viability (BX 795 + Foretinib; first compound 0.04 µM) was 0.938. The relative viability (BX 795 + Foretinib; first compound 0.1265 µM) was 1.04, the relative viability (BX 795 + Foretinib; first compound 0.4 µM) was 0.968 and the relative viability (BX 795 + Foretinib; first compound 1.265 µM) was 0.569. The relative viability (BX 795 + OSI-027; first compound 0.04 µM) was 0.679, the relative viability (BX 795 + OSI-027; first compound 0.1265 µM) was 0.521 and the relative viability (BX 795 + OSI-027; first compound 0.4 µM) was 0.487. For the same cell line, the relative viability (BX 795 + OSI-027; first compound 1.265 µM) was 0.423, the relative viability (BX 795 + Tozasertib; first compound 0.04 µM) was 0.571 and the relative viability (BX 795 + Tozasertib; first compound 0.1265 µM) was 0.549. The relative viability (BX 795 + Tozasertib; first compound 0.4 µM) was 0.657, the relative viability (BX 795 + Tozasertib; first compound 1.265 µM) was 0.233 and the relative viability (BX 795 + Dasatinib; first compound 0.04 µM) was 0.737. It also gave a relative viability (BX 795 + Dasatinib; first compound 0.1265 µM) of 0.541, a relative viability (BX 795 + Dasatinib; first compound 0.4 µM) of 0.414 and a relative viability (BX 795 + Dasatinib; first compound 1.265 µM) of 0.259. For the same cell line, the relative viability (BX 795 + Phenformin; first compound 0.04 µM) was 0.478, the relative viability (BX 795 + Phenformin; first compound 0.1265 µM) was 0.627 and the relative viability (BX 795 + Phenformin; first compound 0.4 µM) was 0.613. For the same cell line, the relative viability (BX 795 + Phenformin; first compound 1.265 µM) was 0.693, the relative viability (BX 795 + AZD7762; first compound 0.04 µM) was 0.55 and the relative viability (BX 795 + AZD7762; first compound 0.4 µM) was 0.619. It also gave a relative viability (BX 795 + AZD7762; first compound 1.265 µM) of 0.633, a relative viability (BX 795 + Pemetrexed; first compound 0.04 µM) of 0.488 and a relative viability (BX 795 + Pemetrexed; first compound 0.4 µM) of 0.469. The relative viability (BX 795 + Pemetrexed; first compound 1.265 µM) was 0.455, the relative viability (BX 795 + Decitabine; first compound 0.04 µM) was 0.543 and the relative viability (BX 795 + Decitabine; first compound 0.4 µM) was 0.622. The relative viability (BX 795 + Decitabine; first compound 1.265 µM) was 0.485, the relative viability (BX 795 + Vorinostat; first compound 0.04 µM) was 0.482 and the relative viability (BX 795 + Vorinostat; first compound 0.4 µM) was 0.611. The relative viability (BX 795 + Vorinostat; first compound 1.265 µM) was 0.604, the relative viability (BX 795 + Olaparib; first compound 0.04 µM) was 0.755 and the relative viability (BX 795 + Olaparib; first compound 0.4 µM) was 1.25. The relative viability (BX 795 + Olaparib; first compound 1.265 µM) was 0.775.
